Measured values as given in ChEMBL document CHEMBL3352773, “Synthesis and evaluation of the 2,4-diaminoquinazoline series as anti-tubercular agents” (Bioorg Med Chem, 2014).

Tests used:
Type in all cases: functional
[1] = test system: Mycobacterium tuberculosis; test: Antituberculosis activity against Mycobacterium tuberculosis H37Rv RM7 C115W mutant assessed as complete growth inhibition after 5 days
[2] = test system: Mycobacterium tuberculosis; test: Antituberculosis activity against Mycobacterium tuberculosis H37Rv RM2 GT deletion at 175 to 176 mutant assessed as complete growth inhibition after 5 days
[3] = test system: Mycobacterium tuberculosis; test: Antituberculosis activity against Mycobacterium tuberculosis H37Rv RM1 IS6110 at nt 801 mutant assessed as complete growth inhibition after 5 days

Measured: MIC

FC(F)(F)c1ccc(CNc2nc(N3CCCCC3)nc3ccccc23)cc1
25 µM: all assays above
